Assay results from patent publication US9333152B2, “Peptides which inhibit activated receptors and their use in cosmetic or pharmaceutical compositions” (LIPOTEC, S.A., priority 2011, dated 2016).
Several values for one entry are separate records, joined by “and”; a condition that tells them apart may be missing. Equal values may be shown once.

Columns and labels:
[1] = system: sensitization of TRPV1 mediated by PAR-2 activity; assay: Inhibition of sensitization of TRPV1 mediated by PAR-2 activity in sensory neurons in culture; CGRP levels (EIA); assay type: cell-based; conditions: rat DRG neurons, 15 min, PAR-2 agonist I 30 μM then capsaicin 1 μM
Experimental: Thus, the effectiveness and potential of the peptides in the inhibition of α-CGRP release due to TRPV-1 sensitization mediated by PAR-2 activity in culture of rat DRG neurons was evaluated.
DRG neurons in culture were incubated with the different treatments at the indicated concentrations in buffer medium HBSS (Hank's Balanced salt solution) for 15 min at 37° C., after which the neurons were sensitized by treatment with the PAR-2 agonist I at 30 μM for 15 min at 37° C. Lastly α-CGRP release was induced by treatment with capsaicin 1 μM for 5 min at 37° C. The supernatants were collected and the amount of α-CGRP released was determined by enzyme immunoassay using the Rat CGRP EIA kit (SPI-Bio, Societe de Pharmacologie et d'Immunologie-BIO, France) following the supplier's instructions. The intensity of the color, determined by reading the absorbency at 405 nm, is proportional to the amount of CGRP released. The relative values of CGRP released were determined by double standardization with regard to the basal release of CGRP of the negative control (cells treated with HBSS) and the maximum releases of CGRP induced by the treatment with the cells with the PAR-2 agonist I and capsaicin.

PAR-2 = molecular target: T1, PAR-2 (Homo sapiens, UniProt P55085); assay: Inhibition of the release of IL-6 induced by PAR-2 activity in human keratinocytes (ELISA); assay type: cell-based; conditions: 48 h, relative to agonist
T1 construct: endogenous in cells; host or cells: human keratinocytes
T1 sequence (P55085 26-397): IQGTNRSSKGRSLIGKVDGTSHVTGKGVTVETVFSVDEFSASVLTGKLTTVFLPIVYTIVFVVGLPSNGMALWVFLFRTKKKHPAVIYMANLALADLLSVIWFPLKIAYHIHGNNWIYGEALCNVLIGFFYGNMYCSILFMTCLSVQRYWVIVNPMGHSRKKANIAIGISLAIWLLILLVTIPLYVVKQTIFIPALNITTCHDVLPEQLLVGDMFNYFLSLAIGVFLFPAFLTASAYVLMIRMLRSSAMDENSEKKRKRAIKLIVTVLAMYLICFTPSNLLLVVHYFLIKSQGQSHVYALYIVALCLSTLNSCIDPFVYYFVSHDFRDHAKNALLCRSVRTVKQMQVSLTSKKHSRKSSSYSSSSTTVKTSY
Experimental: Human keratinocytes were cultivated in supplemented Epilife® medium until confluence was achieved. The cells were then separated by treatment with trypsin and seeded at a density of 18,000 cells per well in 96-well plates pre-treated with collagen matrix. After 48 hours of incubation in supplemented Epilife® medium at 37° C. in a humidified atmosphere of 5% CO2 a fresh medium was added with different concentrations of the product of the invention together with PAR2 Agonist I at 50 μM. Cells treated with supplemented Epilife® medium were added as a negative control (Control). The cells were incubated for another 48 hours under the same conditions, after which the supernatants were collected and the amount of IL-6 released was determined using the Human IL-6 ELISA Ready-SET-GOI® commercial kit (eBioscience, Inc.) following the supplier's instructions. The absorbance of each well was determined by reading the spectrophotometer Multiskan Ascent Reader at 450 nm correcting for each determination with its corresponding reading at 570 nm. The relative levels of IL-6 were calculated standardized with regard to the absorbance corresponding to the treatment of the cells with the PAR-2 Agonist I (maximum release of IL-6 in this cell model).

human dermal fibroblasts = assay: Photoprotective effectiveness in human dermal fibroblasts (solar simulation lamp, Neutral Red); assay type: cell-based; conditions: 0.01 μg/mL
Experimental: The human dermal fibroblasts were maintained in culture for 24 hours in […] or phosphate buffered saline (irradiated control, IC) for 1 hour at 37° C. and humidified air with 5% CO2. The cells were then irradiated with a solar simulation lamp with an energy of 37 J/cm^2 at room temperature for 150 min. A control plate was kept in the dark for the same time at room temperature (non-irradiated control, NIC). After the irradiation period the cell medium was replaced by a fresh one and the cells were incubated for another 24 hours. Cell viability was determined by Neutral Red dye, measuring the optical density at 540 nm in a spectrophotometer, standardizing the values of each simple with regard to the cell viability of the non-irradiated control sample (CVNIC).

[2] = In vivo study of skin hydration (Corneometer CM 825, legs); design: species or system human; conditions: versus placebo composition
Experimental: A comparative in vivo study of the hydrating capacity of the skin of the cosmetic composition in example 22 and its placebo composition, which contained the same ingredients and in the same percentages as the composition of example 22, except the peptide of the invention, Ac-L-Phe-L-Phe-L-Trp-L-Phe-L-His-L-Val-NH2, which was substituted by water.
The measurements of this study were carried out after the test persons were acclimatized for 45 minutes in a bioclimatic room (22° C.; 60% relative humidity) and with the purpose of maintaining the temperature and humidity constant during the measuring. The measurements of skin hydration were carried out on the legs using a Corneometer® CM 825 (Courage & Khazaka, Germany). […]
All the volunteers applied the placebo composition on their right leg and the cosmetic composition from Example 22 on their left legs twice a day for 4 weeks, always applying the placebo composition to the right leg and the composition from example 22 to the left leg. […] Skin measurement values were measured at three different places within the respective testing areas. The recorded values were averaged. […]

[3] = system: human epidermal keratinocytes; assay: Induction of healing in human epidermal keratinocytes in culture (cell-free area closure); assay type: cell-based; conditions: 48 h, (A0-A48)/A0
Experimental: Human keratinocytes were cultivated in DMEM supplemented with fetal bovine serum (FBS) until confluence was achieved. The cells were then separated using trypsin and were seeded at a density of 50,000 cells per well in 48-well plates. After 48 hours of incubation in DMEM at 37° C. in a humidified atmosphere at 5% CO2 a cut in the cultivation with a pipette point to create an area without cells simulating an injury and photographs were taken of said area with a Zeiss Axiovert 40 CFL microscope equipped with a AxioCam MRc5 camera, calculating the area of the zone without cells using the (A0) equipment software. A fresh medium was then added with different concentrations of the product of the invention. Cells treated with DMEM as a negative control were used, and cells treated with DMEM and FBS as the positive healing control. The cells were incubated for another 48 hours under the same conditions to enable cell migration in the injury area, after which photographs were taken of the injury area once again and the corresponding areas of the zones without cells were calculated (A48).
The healing percentage was calculated as the ratio of the reduction to the area without cells after 48 hours and the area without cells before incubation with the peptide [(A0-A48)/A0].

[4] = system: human epidermal keratinocytes; assay: Proliferation of human epidermal keratinocytes in culture (calcein-AM); assay type: cell-based; conditions: 24 h, (T-C)/C
Experimental: Cell proliferation was evaluated by a fluorescence-based cell viability method, in which the live cells are distinguished from the dead cells by the enzymatic conversion of calcein-AM to its fluorescent form.
Human keratinocytes were cultivated in DMEM supplemented with fetal bovine serum (FBS) until confluence was achieved. The cells were then separated using trypsin and were seeded at a density of 100,000 cells per well in 96-well plates. After 24 hours of incubation in DMEM at 37° C. in a humidified atmosphere at 5% CO2 a fresh medium was added with different concentrations of the product of the invention. Cells treated with DMEM as a negative control were used. The cells were incubated for another 24 hours under the same conditions and the medium was substituted by 100 μl of calcein-AM (Molecular Probes) at 0.4 μM diluted in phosphate buffered saline (PBS). After 30 minutes of incubation at 37° C. the fluorescence was measured at excitation 485 nm and emission 530 nm in a plate reader (Genios, Tecan). The total growth percentage was calculated as T/C×100 wherein T is the fluorescence of the wells treated with the peptides of the invention and C the fluorescence of the control wells treated with DMEM.

[5] = system: Reconstructed human epidermis (RHE); assay: Anti-sensitizing potential: IL-8 expression in reconstructed human epidermis (RHE), ELISA; assay type: cell-based; conditions: versus placebo composition; allergens cinnamal and farnesol
From the text: Cosmetic creams containing parfums normally show allergic reactions due to some allergenic components like cinnamal or farnesol. The purpose of this experiment was to evaluate the anti-sensitizing potential of a cosmetic cream of Example 23 containing cinnamal, farnesol and the peptide Ac-L-Phe-L-Phe-L-Trp-L-Phe-L-His-L-Val-NH2, compared with a placebo cream (composition of Example 23 without the ingredients of phase C). In order to determine the anti-sensitizing potential the level of interleukin-8, IL-8 was measured for both creams in RHE tissues after 24 h of cream application.
Commercial RHE tissues (SkinEthic, Lyon, RHE/S/17) (0.5 cm^2) were treated in triplicate with 15 μg of the composition of Example 23 and the placebo composition over the surface of the tissue. After 24 hours of incubation in growth medium at 37° C. in a humidified atmosphere at 5% CO2, the IL-8 expression in the treated RHE tissues was determined using the ELISA Interleukin detection kit (Invitrogen) following the supplier's instructions. The absorbance was determined by reading the spectrophotometer Synergy MX, Biotek, at 450 nm.

[6] = peptide 0.1 mg/mL with PAR2 Agonist I 50 μM
[7] = peptide 0.5 mg/mL with PAR2 Agonist I 50 μM

Substance | % CGRP ([1]; peptide 25 μg/mL) [%] | % CGRP ([1]; peptide 0.5 mg/mL) [%] | % IL-6 (PAR-2; [6]) [%] | % IL-6 (PAR-2; [7]) [%] | % PHOTOPROTECTIVE EFFECTIVENESS (human dermal fibroblasts; (CVi-CVIC)/CVIC versus irradiated control) [%] | CELL VIABILITY (%) (human dermal fibroblasts; irradiated 37 J/cm^2, 150 min, relative to non-irradiated control) | skin hydration (in words) [2] | % Healing ([3]; 25 μg/mL) [%] | % Healing ([3]; 0.5 mg/mL) | % Stimulation of proliferation ([4]; 10 μg/mL) [%] | % Stimulation of proliferation ([4]; 25 μg/mL) | IL-8 expression / release of cytokines (in words) [5]
Ac-FFWDIV-NH2 [Ac-L-Phe-L-Phe-L-Trp-L-Asp-L-Ile-L-Val-NH2] | 78.7 | 20.3 | 36.2 | 11.5 |  |  |  |  |  |  |  | 
Ac-FFWFHV-NH2 [Ac-L-Phe-L-Phe-L-Trp-L-Phe-L-His-L-Val-NH2] | 58.9 | 17.7 | 61.8 | 30.4 | 105.9 | 37.1 | improves the skin's hydration in vivo | 40.0 | 45% and 44.8% | 21.3 | 23% and 23.2% | highly counteract the release of cytokines induced by cosmetic allergens
Ac-FMWFHV-NH2 [Ac-L-Phe-L-Met-L-Trp-L-Phe-L-His-L-Val-NH2] | 70.1 | 20.2 | 84.6 | 42.3 |  |  |  |  |  |  |  | 
